The test system of one series is HOP-62. As to the kind of experiment: NCI screen cytotoxicity, lung HOP-62. To be noted: read-out: Cytotoxicity (GI50 in μM) lung HOP-62; 50% growth inhibition.
Another series concerns UACC-62. The series is described as follows: NCI screen cytotoxicity, melanoma UACC-62. To be noted: read-out: Cytotoxicity (GI50 in μM) melanoma UACC-62; 50% growth inhibition.
For series [1], the system named is all human cancer cell lines successfully tested. The series is described as follows: NCI screen, mean graph midpoint (MGM) for growth inhibition. The class given is cell-based. The note with it: for GI50: read-out: MGM GI50.
The next series relates to HCT-116. As to the kind of experiment: NCI screen cytotoxicity, colon HCT-116. To be noted: read-out: Cytotoxicity (GI50 in μM) colon HCT-116; 50% growth inhibition.
A further series has as its system SN12C. The series is described as follows: NCI screen cytotoxicity, renal SN12C. To be noted: read-out: Cytotoxicity (GI50 in μM) renal SN12C; 50% growth inhibition.
The test system of another series is OVCAR-3. As to the kind of experiment: NCI screen cytotoxicity, ovarian OVCAR-3. The note with it: read-out: Cytotoxicity (GI50 in μM) ovarian OVCAR-3; 50% growth inhibition.
The next series deals with DU-145. As to the kind of experiment: NCI screen cytotoxicity, prostate DU-145. The note with it: read-out: Cytotoxicity (GI50 in μM) prostate DU-145; 50% growth inhibition.
The target of the next series is recombinant human Tdp1 (Homo sapiens (Human), UniProt Q9NUW8). As to the kind of experiment: Gel-based assay measuring the inhibition of recombinant Tdp1. It is filed as biochemical. The note with it: for IC50: read-out: Tdp1 (semiquantitative IC50 scale).
For the next series, the target named is human recombinant Top1 (Homo sapiens (Human), UniProt P11387). As to the kind of experiment: Topoisomerase I-mediated DNA cleavage reactions. Details: Top1 inhibition (text of part A): key to the marks not given beside the values. To be noted: for Top1, compound-induced DNA cleavage due to Top1 inhibition: semiquantitative scale relative to 1 μM camptothecin (90) or MJ-III-65 (91).

The test system of another series is SF-539. As to the kind of experiment: NCI screen cytotoxicity, CNS SF-539. The note with it: read-out: Cytotoxicity (GI50 in μM) CNS SF-539; 50% growth inhibition.
The test system of a further series is MDA-MB-435. As to the kind of experiment: NCI screen cytotoxicity, breast MDA-MB-435. The note with it: read-out: Cytotoxicity (GI50 in μM) breast MDA-MB-435; 50% growth inhibition.
The test system of series [2] is single-stranded DNA substrate. As to the kind of experiment: Surface plasmon resonance, binding to single-stranded DNA substrate. To be noted: SPR. A general note: SPR reads the build-up and loss of mass on a sensor chip optically.
[3] abbreviates: Homo sapiens, read-out: MGM (μM).
The mark [4] stands for this setting: mean graph midpoint for growth inhibition of all human cancer cell lines successfully tested, read-out: MGM.

Where a name gives a salt, the structure may show the parent alone. Read-outs that look alike come from different tables or passages of the source. Bounds are passed on as bounds.

The term GI50 denotes the concentration that inhibits growth by half.

Chain of recombinant human Tdp1 (Q9NUW8 whole entry): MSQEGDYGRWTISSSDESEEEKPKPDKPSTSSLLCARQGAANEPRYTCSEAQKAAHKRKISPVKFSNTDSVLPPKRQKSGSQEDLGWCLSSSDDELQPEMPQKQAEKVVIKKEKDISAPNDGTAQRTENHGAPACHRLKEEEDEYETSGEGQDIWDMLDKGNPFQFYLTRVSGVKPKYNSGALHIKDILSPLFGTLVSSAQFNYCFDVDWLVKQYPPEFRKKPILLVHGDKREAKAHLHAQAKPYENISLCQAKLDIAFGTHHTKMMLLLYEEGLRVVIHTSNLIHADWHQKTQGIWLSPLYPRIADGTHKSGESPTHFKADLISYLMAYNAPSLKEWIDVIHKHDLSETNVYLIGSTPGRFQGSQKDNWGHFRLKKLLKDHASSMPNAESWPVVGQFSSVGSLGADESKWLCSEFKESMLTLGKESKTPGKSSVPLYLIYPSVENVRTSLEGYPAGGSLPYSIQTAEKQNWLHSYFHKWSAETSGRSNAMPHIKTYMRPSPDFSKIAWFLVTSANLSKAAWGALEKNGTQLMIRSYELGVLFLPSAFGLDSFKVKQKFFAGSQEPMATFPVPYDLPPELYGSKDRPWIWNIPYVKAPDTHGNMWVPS
Chain of human recombinant Top1 (P11387 whole entry): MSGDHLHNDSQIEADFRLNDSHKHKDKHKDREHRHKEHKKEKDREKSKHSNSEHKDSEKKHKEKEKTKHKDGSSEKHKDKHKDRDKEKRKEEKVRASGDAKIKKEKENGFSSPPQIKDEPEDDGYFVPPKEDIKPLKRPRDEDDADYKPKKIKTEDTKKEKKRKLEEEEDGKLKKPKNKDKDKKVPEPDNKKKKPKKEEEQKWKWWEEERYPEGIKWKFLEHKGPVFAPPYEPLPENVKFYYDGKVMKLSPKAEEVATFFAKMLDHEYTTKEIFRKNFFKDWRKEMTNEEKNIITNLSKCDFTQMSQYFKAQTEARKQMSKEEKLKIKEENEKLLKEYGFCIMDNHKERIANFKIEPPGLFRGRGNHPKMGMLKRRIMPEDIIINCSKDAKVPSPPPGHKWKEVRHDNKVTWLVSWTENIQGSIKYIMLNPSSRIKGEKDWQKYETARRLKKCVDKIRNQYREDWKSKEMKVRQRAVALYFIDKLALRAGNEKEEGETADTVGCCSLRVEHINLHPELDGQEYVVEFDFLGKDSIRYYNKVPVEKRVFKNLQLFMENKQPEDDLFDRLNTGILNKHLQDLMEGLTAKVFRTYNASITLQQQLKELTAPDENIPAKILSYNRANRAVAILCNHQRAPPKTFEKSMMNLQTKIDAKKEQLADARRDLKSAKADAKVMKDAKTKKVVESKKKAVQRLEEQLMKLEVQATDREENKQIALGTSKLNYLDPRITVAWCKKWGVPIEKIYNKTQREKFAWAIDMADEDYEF
Procedure for human recombinant Top1: Topoisomerase I-Mediated DNA Cleavage Reactions.
DNA cleavage reactions were prepared as previously reported with the exception of the DNA substrate. […] Unincorporated [^32P]dGTP was removed using mini Quick Spin DNA columns (Roche, Indianapolis, Ind.), and the eluate containing the 3′-end-labeled DNA substrate was collected. Approximately 2 nM radiolabeled DNA substrate was incubated with recombinant Top1 in 20 μL of reaction buffer [10 mM Tris-HCl (pH 7.5), 50 mM KCl, 5 mM MgCl2, 0.1 mM EDTA, and 15 μg/mL BSA] at 25° C. for 20 min in the presence of various concentrations of compounds. The reactions were terminated by adding SDS (0.5% final concentration) followed by the addition of two volumes of loading dye (80% formamide, 10 mM sodium hydroxide, 1 mM sodium EDTA, 0.1% xylene cyanol, and 0.1% bromphenol blue). Aliquots of each reaction mixture were subjected to 20% denaturing PAGE. Gels were dried and visualized by using a phosphoimager and ImageQuant software (Molecular Dynamics).
Top1 reactions were performed as recently described. […] The reactions were terminated by adding SDS (0.5% final concentration) followed by the addition of two volumes of loading dye (80% formamide, 10 mM sodium hydroxide, 1 mM sodium EDTA, 0.1% xylene cyanol, and 0.1% bromphenol blue). Reactions were subjected to 20% denaturing PAGE. Gels were dried and visualized by using a Typhoon 8600 and ImageQuant software (Molecular Dynamics).
Procedure for recombinant human Tdp1: Tdp1 inhibitory activity was measured by the drug's ability to inhibit the hydrolysis of the phosphodiester linkage between tyrosine and the 3′-end of the DNA substrate, and to prevent the generation of an oligonucleotide with a free 3′-phosphate (N14P). Therefore, the disappearance of the gel band for N14P indicated Tdp1 inhibition.
Gel-based Assay Measuring the Inhibition of Recombinant Tdp1.
A 5′-[^32P]-labeled single-stranded DNA oligonucleotide containing a 3′-phosphotyrosine (N14Y) was generated as described by Dexheimer et al. The DNA substrate was then incubated with 5 pM recombinant Tdp1 in the absence or presence of inhibitor for 15 min at room temperature in a buffer containing 50 mM Tris HCl, pH 7.5, 80 mM KCl, 2 mM EDTA, 1 mM DTT, 40 μg/ml BSA and 0.01% Tween-20. […] Gel images were scanned using a Typhoon 8600 (GE Healthcare) and densitometric analyses were performed using the ImageQuant software (GE Healthcare).

As for `COc1ccc2c(c1)C(=O)c1c-2n(CCCN)c(=O)c2cc([N+](=O)[O-])ccc12` [Compound 54 of (B)], the GI50 in the series with HOP-62, with UACC-62, in the series with HCT-116 and with SN12C was below 0.01 µM in each case. Moreover, in [1] (setting [3]), the IC50 is 0.02 ± 0.0008 µM.
In the case of `Cl.NCCCn1c2c(c3ccc(NCC(=O)O)cc3c1=O)C(=O)c1ccccc1-2` [Compound 43 of (B), 2-((6-(3-Aminopropyl)-5,11-dioxo-6,11-dihydro-5H-indeno[1,2-c]isoquinolin-3-yl)amino)acetic Acid Hydrochloride], the GI50 is 0.65 µM in the series with HOP-62; 1.6 µM in the series with OVCAR-3; 0.72 µM in the series on UACC-62; 1.51 µM in the series with DU-145; 0.33 µM with HCT-116; 0.49 µM in the series on SN12C. Further, the GI50 with SF-539 turned out to be 1.79 µM; in the series with MDA-MB-435, 1.14 µM. Also, the IC50 was 1 to 12 µM on recombinant human Tdp1 (determined by duplicate) and 0.87 ± 0.014 µM in [1] (setting [3]). Also, the “Top1, compound-induced DNA cleavage due to Top1 inhibition” value (“Top1 … to Top1 inhibition” for short) at human recombinant Top1 was found to be 0.
Consider `COc1ccc2c(c1)C(=O)c1c-2n(CCCN)c(=O)c2cc(N)ccc12` [Compound 89 of (B), 3-Amino-6-(3-aminopropyl)-5,6-dihydro-9-methoxy-5,11-dioxo-11H-indeno[1,2-c]isoquinoline Dihydrochloride], for which the values for the IC50 (at recombinant human Tdp1 (determined by duplicate); in [1] (setting [3])) were 1 to 12 µM and 0.04 µM, respectively.
In the case of `COc1ccc2c(c1)-c1c(c3ccc([N+](=O)[O-])cc3c(=O)n1CCCn1ccnc1)C2=O` [Compound 52 of (B), 6-(3-(1H-Imidazol-1-yl)propyl)-8-methoxy-3-nitro-5H-indeno[1,2-c]isoquinoline-5,11(6H)-dione], the GI50 in the series with HOP-62 is below 0.01 µM; in the series with OVCAR-3 it was 0.03 µM; in the series on UACC-62 it was below 0.01 µM; in the series on DU-145, below 0.01 µM; in the series on HCT-116 it was below 0.01 µM; in the series with SN12C it was below 0.01 µM. In the series with MDA-MB-435, the GI50 came out at 0.03 µM. In addition, the “Tdp1 (semiquantitative IC50 scale)” value on recombinant human Tdp1 is given as “(+)”. In addition, the IC50 in series [1] (setting [4]) is 0.02 ± 0.0006 µM. In addition, the “suppression of Top1-mediated DNA cleavage at high drug concentration” value at human recombinant Top1 (high concentration of 100 μM) is “slight suppression”. Also, at human recombinant Top1, the “Top1 … to Top1 inhibition” value is given as “+++”.
Regarding `CCOC(=O)CNc1ccc2c3c(n(CCCN)c(=O)c2c1)-c1ccccc1C3=O` [Compound 40 of (B), Ethyl 2-[(6-(3-Aminopropyl)-5,11-dioxo-6,11-dihydro-5H-indeno[1,2-c]isoquinolin-3-yl)amino]acetate Hydrochloride], the GI50 in the series with HOP-62 turned out to be 0.93 µM; with OVCAR-3 it was 3.12 µM; in the series on UACC-62, 2.25 µM; in the series with DU-145 it was 1.68 µM; with HCT-116, 0.44 µM; with SN12C it was 1.75 µM. Also, the GI50 came to 8.91 µM in the series with SF-539 and 3.05 µM with MDA-MB-435. The IC50 in series [1] (setting [3]) came to 1.69 µM.
For `COc1ccc2c(c1)-c1c(c3ccc([N+](=O)[O-])cc3c(=O)n1CCCN)C2=O.Cl` [Compound 51 of (B), 6-(3-Aminopropyl)-5,6-dihydro-8-methoxy-3-nitro-5,11-dioxo-11H-indeno[1,2-c]isoquinoline Hydrochloride], the GI50 with OVCAR-3 was found to be 0.54 µM; in the series on DU-145, 0.18 µM; with HCT-116 it was 0.06 µM; in the series on SN12C, 0.15 µM; with SF-539, 0.61 µM; with MDA-MB-435 it was 0.58 µM. Moreover, the IC50 at recombinant human Tdp1 is 12 to 37 µM; in [1] (setting [3]), 0.17 ± 0.017 µM. In addition, the “Top1 … to Top1 inhibition” value on human recombinant Top1 is recorded as “++”.
On to `CS(=O)(=O)NCCCCCCCCCCCn1c2c(c3ccccc3c1=O)C(=O)c1ccccc1-2` [Compound 89, N-(11-(5,11-Dioxo-5H-indeno[1,2-c]isoquinolin-6(11H)-yl)undecyl)-methanesulfonamide], for which, in series [1] (Homo sapiens), the GI50 worked out at 0.04 µM. Besides, the “Top1 … to Top1 inhibition” value on human recombinant Top1 is given as “++”.
Take `O=C(O)C(F)(F)F.O=C(O)C(F)(F)F.O=C1c2ccccc2-c2c1c1ccccc1c(=O)n2CCCNCCCNCCCn1c2c(c3ccccc3c1=O)C(=O)c1ccccc1-2` [Compound 145, Bis-1,3-{(5,6-dihydro-5,11-diketo-11H-indeno[1,2-c]isoquinoline)-6-propyl-amino}propane Bis(trifluoroacetate)]: in series [1] (mean graph midpoint, NCI cancer cell line screen), the GI50 was 0.394 µM. For the same compound, the “Top1 inhibition (text of part A)” value at human recombinant Top1 (semiquantitative scale relative to 1 μM camptothecin) was “++++”.
Regarding `COC(=O)CC(=O)Nc1ccc2c3c(n(CCCN)c(=O)c2c1)-c1ccccc1C3=O` [Compound 23 of (B), Methyl 3-[(6-(3-Aminopropyl)-5,11-dioxo-6,11-dihydro-5H-indeno[1,2-c]isoquinolin-3-yl)amino]-3-oxopropanoate], in series [1] (setting [3]), the IC50 worked out at 1.86 µM.
On to “N-(6-(5,11-Dioxo-5H-indeno[1,2-c]isoquinolin-6(11H)hexyl)-methanesulfonamide [Compound 84]”, for which, in [1] (setting [4]), the IC50 worked out at 0.25 ± 0.004 µM. Also, the “Top1 inhibition (in words)” value on human recombinant Top1 was “active”.
In the case of `NCCCn1c2c(c3ccc(N)cc3c1=O)C(=O)c1ccccc1-2` [Compound 62 of (B)], the GI50 with HOP-62 came to 0.27 µM; in the series with OVCAR-3 it was 0.13 µM; in the series on UACC-62, 0.3 µM; in the series with DU-145, 0.12 µM; in the series with HCT-116 it was 0.18 µM; in the series with SN12C, 0.23 µM. In addition, the GI50 is 0.34 µM in the series with SF-539 and 0.23 µM in the series on MDA-MB-435. Besides, the IC50 in [1] (setting [3]) is 0.16 µM.
With “(6-Methyl-5,11-dioxo-6,11-dihydro-5H-indeno[1,2-c]isoquinolin-3-yl)-carbamic Acid [Compound 14 of (B)]”, at human recombinant Top1, the “Top1 … to Top1 inhibition” value is “++”. Besides, the “binding to the single-stranded DNA substrate” value in series [2] is given as “did not bind”.
With `COC(=O)CCCCC(=O)Nc1ccc2c3c(n(CCCN)c(=O)c2c1)-c1ccccc1C3=O` [Compound 26 of (B), Methyl 6-[(6-(3-Aminopropyl)-5,11-dioxo-6,11-dihydro-5H-indeno[1,2-c]isoquinolin-3-yl)amino]-6-oxohexanoate], the values for the IC50 (at recombinant human Tdp1 (determined by duplicate); in [1] (setting [3])) were 37 to 111 µM and 2.34 µM, respectively. Also, at human recombinant Top1, the “Top1 … to Top1 inhibition” value is “(+)”.
Consider `O=C1c2ccccc2-c2c1c1ccc([N+](=O)[O-])cc1c(=O)n2CCCO` [Compound 63 of (B)], for which the GI50 is 0.87 µM in the series on OVCAR-3; 0.31 µM in the series with UACC-62; 0.43 µM in the series on DU-145; 0.19 µM with HCT-116; 0.47 µM in the series with SN12C; 1.97 µM with MDA-MB-435. In addition, the IC50 in [1] (setting [3]) was 0.89 ± 0.22 µM.
As to `COC(=O)C(=O)Nc1ccc2c3c(n(CCCN)c(=O)c2c1)-c1ccccc1C3=O` [Compound 22 of (B), Methyl 2-[(6-(3-Aminopropyl)-5,11-dioxo-6,11-dihydro-5H-indeno[1,2-c]isoquinolin-3-yl)amino]-2-oxoacetate], in [1] (setting [3]), the IC50 worked out at 1.86 ± 0.38 µM. The “Top1 … to Top1 inhibition” value at human recombinant Top1 is listed as 0.
In the case of `COC(=O)CCCC(=O)Nc1ccc2c3c(n(CCCN)c(=O)c2c1)-c1ccccc1C3=O` [Compound 25 of (B), Methyl 5-[(6-(3-Aminopropyl)-5,11-dioxo-6,11-dihydro-5H-indeno[1,2-c]isoquinolin-3-yl)amino]-5-oxopentanoate], the IC50 is 37 to 111 µM at recombinant human Tdp1 (determined by duplicate) and 1.09 µM in series [1] (setting [3]). For the same compound, at human recombinant Top1, the “Top1 … to Top1 inhibition” value is 0.

Values taken from US9402842B2, “Synthesis and use of dual tyrosyl-DNA phosphodiesterase I (Tdp1)—topoisomerase I (Top1) inhibitors” (Purdue Research Foundation, priority 2012, dated 2016).
